The values below come from ChEMBL document CHEMBL5584267, “Discovery of the first selective, small-molecule GFRα2/3 inhibitors through DNA-encoded library technology” (Bioorg Med Chem Lett, 2024).

T1 sequence (P07949 whole entry): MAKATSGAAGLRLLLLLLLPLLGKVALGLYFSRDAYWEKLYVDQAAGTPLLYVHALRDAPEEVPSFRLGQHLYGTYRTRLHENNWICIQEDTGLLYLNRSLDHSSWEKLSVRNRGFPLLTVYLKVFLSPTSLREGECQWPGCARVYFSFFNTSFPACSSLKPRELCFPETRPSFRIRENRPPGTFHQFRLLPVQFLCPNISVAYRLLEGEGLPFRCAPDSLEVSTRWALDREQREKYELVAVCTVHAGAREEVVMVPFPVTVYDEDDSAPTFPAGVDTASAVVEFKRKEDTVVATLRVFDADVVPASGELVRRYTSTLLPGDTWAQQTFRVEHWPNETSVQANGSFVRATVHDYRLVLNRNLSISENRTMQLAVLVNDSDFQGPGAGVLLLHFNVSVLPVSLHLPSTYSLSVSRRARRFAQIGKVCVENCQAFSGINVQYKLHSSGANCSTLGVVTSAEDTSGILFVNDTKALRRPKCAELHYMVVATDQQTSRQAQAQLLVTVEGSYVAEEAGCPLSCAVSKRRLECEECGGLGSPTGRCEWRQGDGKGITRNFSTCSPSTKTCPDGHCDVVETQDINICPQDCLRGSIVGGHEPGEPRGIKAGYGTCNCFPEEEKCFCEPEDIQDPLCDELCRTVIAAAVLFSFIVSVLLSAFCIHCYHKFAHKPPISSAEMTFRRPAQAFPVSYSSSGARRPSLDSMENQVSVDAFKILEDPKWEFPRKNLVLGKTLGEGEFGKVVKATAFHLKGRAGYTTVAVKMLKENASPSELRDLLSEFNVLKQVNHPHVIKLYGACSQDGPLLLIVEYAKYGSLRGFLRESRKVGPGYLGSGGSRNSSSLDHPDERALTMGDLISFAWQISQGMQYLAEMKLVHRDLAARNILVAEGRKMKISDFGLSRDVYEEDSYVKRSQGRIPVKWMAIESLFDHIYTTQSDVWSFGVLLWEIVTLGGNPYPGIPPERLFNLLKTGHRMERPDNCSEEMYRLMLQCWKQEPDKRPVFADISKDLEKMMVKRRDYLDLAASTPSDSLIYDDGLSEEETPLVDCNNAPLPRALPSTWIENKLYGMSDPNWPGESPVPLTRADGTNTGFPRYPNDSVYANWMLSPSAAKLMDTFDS

One assay addresses T1, Proto-oncogene tyrosine-protein kinase receptor Ret (Homo sapiens, UniProt P07949). The assay can be described thus: Inhibition of RET (unknown origin) assessed as maximal efficacy relative to control.
Regarding `CNC(=O)[C@H](Cc1c[nH]cn1)NC(=O)Cc1cccc(O[C@H]2CCc3cc(-c4cnc(Nc5ccccc5)nc4)ccc32)c1`, the Emax was found to be 65%.

For `COC(=O)[C@H](Cc1cnc[nH]1)NC(=O)Cc1cccc(O[C@H]2CCc3cc(-c4cncc(Oc5ccccc5)c4)ccc32)c1`, the Emax was found to be 0%.

Take `CNC(=O)Cc1cccc(O[C@H]2CCc3cc(-c4cnc(Nc5ccccc5)nc4)ccc32)c1`: the Emax turned out to be 0%.

Consider `CNC(=O)[C@@H](Cc1c[nH]cn1)NC(=O)Cc1cccc(O[C@H]2CCc3cc(-c4cnc(Nc5ccccc5)nc4)ccc32)c1`, for which the Emax was 0%.

For `CO[C@H]1CCc2cc(-c3cnc(Nc4ccccc4)nc3)ccc21`, the Emax came to 0%.

Turning to `O[C@H]1CCc2cc(-c3cnc(Nc4ccccc4)nc3)ccc21`, the Emax is 92%.

As to `CNC(=O)[C@H](NC(=O)Cc1cccc(O[C@H]2CCc3cc(-c4cnc(Nc5cncnc5)nc4)ccc32)c1)C1CCCCC1`, the Emax is 0%.

`CNC(=O)[C@H](NC(=O)Cc1cccc(O[C@H]2CCc3cc(-c4cncnc4)ccc32)c1)C1CCCCC1`: the Emax worked out at 100%.

The next assay has as its target T2, GDNF family receptor alpha-2 (Homo sapiens, UniProt O00451).
T2 sequence (O00451 whole entry): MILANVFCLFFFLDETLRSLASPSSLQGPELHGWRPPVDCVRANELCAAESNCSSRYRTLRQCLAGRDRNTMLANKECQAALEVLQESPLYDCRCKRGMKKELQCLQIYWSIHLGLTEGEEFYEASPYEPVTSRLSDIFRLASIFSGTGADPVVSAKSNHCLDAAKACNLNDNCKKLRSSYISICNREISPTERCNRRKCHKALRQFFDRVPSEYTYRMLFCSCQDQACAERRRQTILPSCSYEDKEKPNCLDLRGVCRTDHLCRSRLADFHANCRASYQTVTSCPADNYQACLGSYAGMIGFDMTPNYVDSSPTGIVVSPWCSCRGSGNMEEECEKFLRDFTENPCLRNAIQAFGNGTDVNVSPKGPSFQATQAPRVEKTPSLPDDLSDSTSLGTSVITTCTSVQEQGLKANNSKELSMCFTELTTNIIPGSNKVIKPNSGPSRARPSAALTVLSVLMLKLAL
Nature of the assay: Inhibition of GFRalpha2 (unknown origin).
As to `CNC(=O)[C@H](Cc1c[nH]cn1)NC(=O)Cc1cccc(O[C@H]2CCc3cc(-c4cnc(Nc5ccccc5)nc4)ccc32)c1`, half-maximal inhibition (IC50) required 3.7 µM. This counts as single-digit micromolar.

Consider `COC(=O)[C@H](Cc1cnc[nH]1)NC(=O)Cc1cccc(O[C@H]2CCc3cc(-c4cncc(Oc5ccccc5)c4)ccc32)c1`, for which the IC50 is more than 100 µM.

`CNC(=O)Cc1cccc(O[C@H]2CCc3cc(-c4cnc(Nc5ccccc5)nc4)ccc32)c1`: the half-maximal inhibitory concentration (IC50) was more than 100 µM.

In the case of `CNC(=O)[C@@H](Cc1c[nH]cn1)NC(=O)Cc1cccc(O[C@H]2CCc3cc(-c4cnc(Nc5ccccc5)nc4)ccc32)c1`, the IC50 was more than 100 µM.

Regarding `CO[C@H]1CCc2cc(-c3cnc(Nc4ccccc4)nc3)ccc21`, the IC50 is more than 100 µM.

With `O[C@H]1CCc2cc(-c3cnc(Nc4ccccc4)nc3)ccc21`, the IC50 was more than 100 µM.

Compound `CNC(=O)[C@H](NC(=O)Cc1cccc(O[C@H]2CCc3cc(-c4cnc(Nc5cncnc5)nc4)ccc32)c1)C1CCCCC1` had an IC50 of more than 100 µM.

For `CNC(=O)[C@H](NC(=O)Cc1cccc(O[C@H]2CCc3cc(-c4cncnc4)ccc32)c1)C1CCCCC1`, the IC50 is more than 100 µM.

A further assay deals with T3, GDNF family receptor alpha-3 (Homo sapiens, UniProt O60609).
T3 sequence (O60609 whole entry): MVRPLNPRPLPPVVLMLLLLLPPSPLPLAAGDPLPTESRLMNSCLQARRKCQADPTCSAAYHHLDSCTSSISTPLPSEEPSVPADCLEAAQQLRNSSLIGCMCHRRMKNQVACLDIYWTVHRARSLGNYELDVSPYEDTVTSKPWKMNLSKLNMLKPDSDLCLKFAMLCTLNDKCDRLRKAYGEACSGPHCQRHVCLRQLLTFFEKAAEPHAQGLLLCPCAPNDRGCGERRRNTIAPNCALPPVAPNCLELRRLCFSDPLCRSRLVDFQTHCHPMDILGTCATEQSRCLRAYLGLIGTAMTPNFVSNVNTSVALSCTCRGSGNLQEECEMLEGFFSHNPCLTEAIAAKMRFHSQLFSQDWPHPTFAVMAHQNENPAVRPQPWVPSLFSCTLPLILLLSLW
Nature of the assay: Inhibition of GFRalpha3 (unknown origin).
The compound `CNC(=O)[C@H](Cc1c[nH]cn1)NC(=O)Cc1cccc(O[C@H]2CCc3cc(-c4cnc(Nc5ccccc5)nc4)ccc32)c1` yielded a half-inhibitory concentration (IC50) of 5.4 µM.

For `COC(=O)[C@H](Cc1cnc[nH]1)NC(=O)Cc1cccc(O[C@H]2CCc3cc(-c4cncc(Oc5ccccc5)c4)ccc32)c1`, the IC50 was found to be 7.4 µM.

Turning to `CNC(=O)Cc1cccc(O[C@H]2CCc3cc(-c4cnc(Nc5ccccc5)nc4)ccc32)c1`, the IC50 was more than 100 µM.

With `CNC(=O)[C@@H](Cc1c[nH]cn1)NC(=O)Cc1cccc(O[C@H]2CCc3cc(-c4cnc(Nc5ccccc5)nc4)ccc32)c1`, the IC50 worked out at 13.4 µM. That is a double-digit micromolar value.

With `CO[C@H]1CCc2cc(-c3cnc(Nc4ccccc4)nc3)ccc21`, the IC50 was more than 100 µM.

In turn, `O[C@H]1CCc2cc(-c3cnc(Nc4ccccc4)nc3)ccc21` registered an IC50 of 8.8 µM.

With `CNC(=O)[C@H](NC(=O)Cc1cccc(O[C@H]2CCc3cc(-c4cnc(Nc5cncnc5)nc4)ccc32)c1)C1CCCCC1`, the IC50 is more than 100 µM.

Turning to `CNC(=O)[C@H](NC(=O)Cc1cccc(O[C@H]2CCc3cc(-c4cncnc4)ccc32)c1)C1CCCCC1`, the IC50 is more than 100 µM.

The target of another assay is T4, GDNF family receptor alpha-3 (Homo sapiens) (UniProt O60609).
T4 sequence (whole entry): T3 sequence (O60609 whole entry)
Nature of the assay: Inhibition of GFRalpha3 (unknown origin) assessed as maximal efficacy relative to control.
On to `CNC(=O)[C@H](Cc1c[nH]cn1)NC(=O)Cc1cccc(O[C@H]2CCc3cc(-c4cnc(Nc5ccccc5)nc4)ccc32)c1`, for which the Emax worked out at 70%.

Take `COC(=O)[C@H](Cc1cnc[nH]1)NC(=O)Cc1cccc(O[C@H]2CCc3cc(-c4cncc(Oc5ccccc5)c4)ccc32)c1`: the Emax was 100%.

Take `CNC(=O)Cc1cccc(O[C@H]2CCc3cc(-c4cnc(Nc5ccccc5)nc4)ccc32)c1`: the maximum response (Emax) was 0%.

As to `CNC(=O)[C@@H](Cc1c[nH]cn1)NC(=O)Cc1cccc(O[C@H]2CCc3cc(-c4cnc(Nc5ccccc5)nc4)ccc32)c1`, the maximal response (Emax) amounted to 100%.

`CO[C@H]1CCc2cc(-c3cnc(Nc4ccccc4)nc3)ccc21`: the Emax is 0%.

Consider `O[C@H]1CCc2cc(-c3cnc(Nc4ccccc4)nc3)ccc21`, for which the Emax was found to be 71%.

As to `CNC(=O)[C@H](NC(=O)Cc1cccc(O[C@H]2CCc3cc(-c4cnc(Nc5cncnc5)nc4)ccc32)c1)C1CCCCC1`, the Emax is 0%.

On to `CNC(=O)[C@H](NC(=O)Cc1cccc(O[C@H]2CCc3cc(-c4cncnc4)ccc32)c1)C1CCCCC1`, for which the Emax is 0%.

A further assay addresses T1, Proto-oncogene tyrosine-protein kinase receptor Ret. The assay can be described thus: Inhibition of RET (unknown origin).
Compound `CNC(=O)[C@H](Cc1c[nH]cn1)NC(=O)Cc1cccc(O[C@H]2CCc3cc(-c4cnc(Nc5ccccc5)nc4)ccc32)c1` yielded an IC50 of 1.1 µM.

Turning to `COC(=O)[C@H](Cc1cnc[nH]1)NC(=O)Cc1cccc(O[C@H]2CCc3cc(-c4cncc(Oc5ccccc5)c4)ccc32)c1`, the IC50 was more than 100 µM.

`CNC(=O)Cc1cccc(O[C@H]2CCc3cc(-c4cnc(Nc5ccccc5)nc4)ccc32)c1` had an IC50 of more than 100 µM.

The compound `CNC(=O)[C@@H](Cc1c[nH]cn1)NC(=O)Cc1cccc(O[C@H]2CCc3cc(-c4cnc(Nc5ccccc5)nc4)ccc32)c1` registered an IC50 of more than 100 µM.

`CO[C@H]1CCc2cc(-c3cnc(Nc4ccccc4)nc3)ccc21`: the IC50 is more than 100 µM.

As for `O[C@H]1CCc2cc(-c3cnc(Nc4ccccc4)nc3)ccc21`, the IC50 came out at 16 µM.

`CNC(=O)[C@H](NC(=O)Cc1cccc(O[C@H]2CCc3cc(-c4cnc(Nc5cncnc5)nc4)ccc32)c1)C1CCCCC1` displayed an IC50 of more than 100 µM.

In turn, `CNC(=O)[C@H](NC(=O)Cc1cccc(O[C@H]2CCc3cc(-c4cncnc4)ccc32)c1)C1CCCCC1` showed a 50% inhibitory concentration (IC50) of 0.9 µM.

A further assay concerns the target T5, GDNF family receptor alpha-2 (Homo sapiens) (UniProt O00451).
T5 sequence (whole entry): T2 sequence (O00451 whole entry)
Nature of the assay: Inhibition of GFRalpha2 (unknown origin) assessed as maximal efficacy relative to control.
On to `CNC(=O)[C@H](Cc1c[nH]cn1)NC(=O)Cc1cccc(O[C@H]2CCc3cc(-c4cnc(Nc5ccccc5)nc4)ccc32)c1`, for which the Emax is 46%.

Consider `COC(=O)[C@H](Cc1cnc[nH]1)NC(=O)Cc1cccc(O[C@H]2CCc3cc(-c4cncc(Oc5ccccc5)c4)ccc32)c1`, for which the Emax was determined as 0%.

With `CNC(=O)Cc1cccc(O[C@H]2CCc3cc(-c4cnc(Nc5ccccc5)nc4)ccc32)c1`, the Emax is 0%.

With `CNC(=O)[C@@H](Cc1c[nH]cn1)NC(=O)Cc1cccc(O[C@H]2CCc3cc(-c4cnc(Nc5ccccc5)nc4)ccc32)c1`, the Emax worked out at 0%.

In the case of `CO[C@H]1CCc2cc(-c3cnc(Nc4ccccc4)nc3)ccc21`, the Emax came out at 0%.

For `O[C@H]1CCc2cc(-c3cnc(Nc4ccccc4)nc3)ccc21`, the Emax came out at 0%.

With `CNC(=O)[C@H](NC(=O)Cc1cccc(O[C@H]2CCc3cc(-c4cnc(Nc5cncnc5)nc4)ccc32)c1)C1CCCCC1`, the Emax came to 0%.

Take `CNC(=O)[C@H](NC(=O)Cc1cccc(O[C@H]2CCc3cc(-c4cncnc4)ccc32)c1)C1CCCCC1`: the Emax worked out at 0%.

The target of the next assay is T6, GDNF family receptor alpha-1 (Homo sapiens, UniProt P56159).
T6 sequence (P56159 whole entry): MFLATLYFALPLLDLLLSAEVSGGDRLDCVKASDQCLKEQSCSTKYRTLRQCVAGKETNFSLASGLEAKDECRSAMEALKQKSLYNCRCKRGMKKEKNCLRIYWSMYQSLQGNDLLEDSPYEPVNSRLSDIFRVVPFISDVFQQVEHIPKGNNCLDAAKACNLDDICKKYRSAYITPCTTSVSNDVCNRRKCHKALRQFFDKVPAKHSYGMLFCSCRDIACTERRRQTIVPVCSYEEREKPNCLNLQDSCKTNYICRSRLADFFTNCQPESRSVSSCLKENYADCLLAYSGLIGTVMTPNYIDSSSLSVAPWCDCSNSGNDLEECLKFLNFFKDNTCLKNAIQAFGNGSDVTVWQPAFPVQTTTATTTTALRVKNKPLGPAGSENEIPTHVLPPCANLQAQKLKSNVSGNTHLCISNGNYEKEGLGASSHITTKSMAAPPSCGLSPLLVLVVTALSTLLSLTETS
The assay can be described thus: Inhibition of GFRalpha1 (unknown origin).
The compound `CNC(=O)[C@H](Cc1c[nH]cn1)NC(=O)Cc1cccc(O[C@H]2CCc3cc(-c4cnc(Nc5ccccc5)nc4)ccc32)c1` displayed a half-maximal inhibitory concentration (IC50) of more than 100 µM.

With `COC(=O)[C@H](Cc1cnc[nH]1)NC(=O)Cc1cccc(O[C@H]2CCc3cc(-c4cncc(Oc5ccccc5)c4)ccc32)c1`, the IC50 is more than 100 µM.

As to `CNC(=O)Cc1cccc(O[C@H]2CCc3cc(-c4cnc(Nc5ccccc5)nc4)ccc32)c1`, the IC50 is more than 100 µM.

The compound `CNC(=O)[C@@H](Cc1c[nH]cn1)NC(=O)Cc1cccc(O[C@H]2CCc3cc(-c4cnc(Nc5ccccc5)nc4)ccc32)c1` had an IC50 of 29.9 µM.

As to `CO[C@H]1CCc2cc(-c3cnc(Nc4ccccc4)nc3)ccc21`, the IC50 was more than 100 µM.

Compound `O[C@H]1CCc2cc(-c3cnc(Nc4ccccc4)nc3)ccc21` yielded an IC50 of more than 100 µM.

`CNC(=O)[C@H](NC(=O)Cc1cccc(O[C@H]2CCc3cc(-c4cnc(Nc5cncnc5)nc4)ccc32)c1)C1CCCCC1` yielded an IC50 of more than 100 µM.

Compound `CNC(=O)[C@H](NC(=O)Cc1cccc(O[C@H]2CCc3cc(-c4cncnc4)ccc32)c1)C1CCCCC1` displayed an IC50 of more than 100 µM.

For a further assay, the target named is T7, GDNF family receptor alpha-1 (Homo sapiens) (UniProt P56159).
T7 sequence (whole entry): T6 sequence (P56159 whole entry)
The assay can be described thus: Inhibition of GFRalpha1 (unknown origin) assessed as maximal efficacy relative to control.
As to `CNC(=O)[C@H](Cc1c[nH]cn1)NC(=O)Cc1cccc(O[C@H]2CCc3cc(-c4cnc(Nc5ccccc5)nc4)ccc32)c1`, the Emax was 0%.

`COC(=O)[C@H](Cc1cnc[nH]1)NC(=O)Cc1cccc(O[C@H]2CCc3cc(-c4cncc(Oc5ccccc5)c4)ccc32)c1`: the Emax worked out at 0%.

`CNC(=O)Cc1cccc(O[C@H]2CCc3cc(-c4cnc(Nc5ccccc5)nc4)ccc32)c1`: the Emax was 0%.

Regarding `CNC(=O)[C@@H](Cc1c[nH]cn1)NC(=O)Cc1cccc(O[C@H]2CCc3cc(-c4cnc(Nc5ccccc5)nc4)ccc32)c1`, the Emax worked out at 97%.

As for `CO[C@H]1CCc2cc(-c3cnc(Nc4ccccc4)nc3)ccc21`, the Emax amounted to 0%.

As to `O[C@H]1CCc2cc(-c3cnc(Nc4ccccc4)nc3)ccc21`, the Emax is 0%.

For the compound `CNC(=O)[C@H](NC(=O)Cc1cccc(O[C@H]2CCc3cc(-c4cnc(Nc5cncnc5)nc4)ccc32)c1)C1CCCCC1`, the Emax came out at 0%.

As to `CNC(=O)[C@H](NC(=O)Cc1cccc(O[C@H]2CCc3cc(-c4cncnc4)ccc32)c1)C1CCCCC1`, the Emax came out at 0%.
